Test results taken from PubChem BioAssay (NCI).
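Briefly, cells in 96-well plates were exposed to five compound concentrations for 48 h, and endpoints were estimated by linear interpolation. The concentration for 50% growth inhibition is given as GI50. Definition used: TGI = concentration required for complete inhibition of growth.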

Legend:
Assay in all cases: NCI anticancer screen, dose series, 48 h
[1] = test system: HL-60(TB) leukemia
[2] = test system: SR leukemia
[3] = test system: COLO 205 colon
[4] = test system: ACHN renal
[5] = test system: MALME-3M melanoma
[6] = test system: RXF 393 renal
[7] = test system: BT-549 breast
[8] = test system: CAKI-1 renal
[9] = test system: SNB-19 CNS
[10] = test system: TK-10 renal
[11] = test system: MCF7 breast
[12] = test system: SK-OV-3 ovarian
[13] = test system: SN12C renal
[14] = test system: NCI-H460 lung
[15] = test system: UACC-62 melanoma
[16] = test system: EKVX NSCLC
[17] = test system: IGROV1 ovarian
[18] = test system: CCRF-CEM leukemia
[19] = test system: SK-MEL-2 melanoma
[20] = test system: OVCAR-4 ovarian
[21] = test system: NCI-H522 lung
[22] = test system: SW-620 colon
[23] = test system: U251 CNS
[24] = test system: HCT-116 colon
[25] = test system: DU-145 prostate
[26] = test system: HOP-62 NSCLC
[27] = test system: SF-295 CNS
[28] = test system: A549 NSCLC
[29] = test system: SK-MEL-5 melanoma

COc1ccc(C(=O)/C=C/c2cccc(Cl)c2)cc1S(N)(=O)=O was tested. Which GI50 [1] did it give?
The GI50 was 1.9 µM.

And the TGI [1]?
The TGI was 5.72 µM.

And the GI50 [2]?
The GI50 was 0.848 µM.

What about the TGI [2] of the same molecule?
The TGI was 4.9 µM.

What about the GI50 [3] of the same molecule?
Its GI50 is 1.81 µM.

What about the TGI [3] of the same molecule?
Its TGI is 3.41 µM.

What about the GI50 [4] of the same molecule?
The GI50 was 1.75 µM.

And the TGI [4]?
The TGI was 3.23 µM.

What about the GI50 [5] of the same molecule?
Its GI50 is 3.56 µM.

What about the TGI [5] of the same molecule?
Its TGI is 15.1 µM.

And the GI50 [6]?
The GI50 was 1.55 µM.

What about the TGI [6] of the same molecule?
Its TGI is 3.08 µM.

What about the GI50 [7] of the same molecule?
Its GI50 is 1.65 µM.

And the TGI [7]?
Its TGI is 4.18 µM.

And the GI50 [8]?
The GI50 was 2.4 µM.

And the TGI [8]?
Its TGI is 9.07 µM.

What about the GI50 [9] of the same molecule?
Its GI50 is 3.13 µM.

And the TGI [9]?
The TGI was 12.4 µM.

And the GI50 [10]?
Its GI50 is 2.49 µM.

What about the TGI [10] of the same molecule?
The TGI was 10.5 µM.

And the GI50 [11]?
Its GI50 is 1.97 µM.

And the TGI [11]?
The TGI was 6.99 µM.

What about the GI50 [12] of the same molecule?
The GI50 was 6.24 µM.

What about the TGI [12] of the same molecule?
Its TGI is 19.1 µM.

What about the GI50 [13] of the same molecule?
The GI50 was 1.56 µM.

What about the TGI [13] of the same molecule?
Its TGI is 3.64 µM.

What about the GI50 [14] of the same molecule?
The GI50 was 3.34 µM.

What about the TGI [14] of the same molecule?
Its TGI is 11.2 µM.

What about the GI50 [15] of the same molecule?
The GI50 was 1.98 µM.

What about the TGI [15] of the same molecule?
Its TGI is 5.51 µM.

What about the GI50 [16] of the same molecule?
The GI50 was 4.16 µM.

And the TGI [16]?
Its TGI is 16.7 µM.

And the GI50 [17]?
Its GI50 is 2.48 µM.

What about the TGI [17] of the same molecule?
Its TGI is 9.06 µM.

And the GI50 [18]?
The GI50 was 3.11 µM.

And the TGI [18]?
The TGI was 8.69 µM.

And the GI50 [19]?
Its GI50 is 12.9 µM.

And the TGI [19]?
Its TGI is 26.2 µM.

What about the GI50 [20] of the same molecule?
Its GI50 is 3.58 µM.

And the TGI [20]?
The TGI was 14.3 µM.

What about the GI50 [21] of the same molecule?
Its GI50 is 1.63 µM.

And the TGI [21]?
The TGI was 3.22 µM.

What about the GI50 [22] of the same molecule?
The GI50 was 1.68 µM.

What about the TGI [22] of the same molecule?
The TGI was 3.53 µM.

What about the GI50 [23] of the same molecule?
Its GI50 is 1.36 µM.

And the TGI [23]?
Its TGI is 2.69 µM.

What about the GI50 [24] of the same molecule?
The GI50 was 1.21 µM.

What about the TGI [24] of the same molecule?
Its TGI is 2.52 µM.

And the GI50 [25]?
The GI50 was 3.52 µM.

What about the TGI [25] of the same molecule?
The TGI was 12.2 µM.

And the GI50 [26]?
Its GI50 is 2.2 µM.

What about the TGI [26] of the same molecule?
The TGI was 6.43 µM.

And the GI50 [27]?
The GI50 was 2.24 µM.

What about the TGI [27] of the same molecule?
The TGI was 7.94 µM.

What about the GI50 [28] of the same molecule?
The GI50 was 2.5 µM.

And the TGI [28]?
Its TGI is 10.2 µM.

And the GI50 [29]?
The GI50 was 3.18 µM.

And the TGI [29]?
Its TGI is 12.6 µM.
